Measured values reported in ChEMBL document CHEMBL4251625, “Efficacy of 2-hydroxy-3-phenylsulfanylmethyl-[1,4]-naphthoquinone derivatives against different Trypanosoma cruzi discrete type units: Identification of a promising hit compound” (Eur J Med Chem, 2018).

Assays:
[1] = Cytotoxicity activity against Swiss Webster mouse primary hepatocytes assessed as reduction in cell viability after 72 hrs by cell-titer-glo assay; format: cell-based, Hepatocyte
[2] = Cytotoxicity activity against African green monkey Vero cells assessed as reduction in cell viability after 72 hrs by cell-titer-glo assay; format: cell-based; conditions: chlorocebus sabaeus
Trypanosoma cruzi [3] = assay: Trypanocidal activity against Trypanosoma cruzi Y trypomastigotes infected in monkey LLC-MK2 cells after 24 hrs by cell-titer-glo assay; format: functional, organism-based; conditions: for IC50: LLC-MK2, 24 h; for IC90: LLC-MK2, in Primates, 24 h
Trypanosoma cruzi [4] = assay: Trypanocidal activity against infected Swiss Webster mouse derived bloodstream form of Trypanosoma cruzi Y after 24 hrs by cell-titer-glo assay; format: functional, organism-based
[5] = Therapeutic index, ratio of CC50 for African green monkey Vero cells to IC50 for Trypanosoma cruzi Y trypomastigotes infected in monkey LLC-MK2 cells; format: toxicity, cell-based; conditions: read-out: Ratio CC50/IC50
[6] = Therapeutic index, ratio of CC50 for African green monkey Vero cells to IC50 for infected Swiss Webster mouse derived bloodstream form of Trypanosoma cruzi Y; format: toxicity; conditions: read-out: Ratio CC50/IC50
Trypanosoma cruzi [7] = assay: Trypanocidal activity against Trypanosoma cruzi Brazil trypomastigotes infected in monkey LLC-MK2 cells after 24 hrs by luminescent assay; format: functional, organism-based
Trypanosoma cruzi [8] = assay: Trypanocidal activity against Trypanosoma cruzi CL trypomastigotes infected in monkey LLC-MK2 cells after 24 hrs by luminescent assay; format: functional, organism-based; conditions: CL Brener
Trypanosoma cruzi [9] = assay: Trypanocidal activity against Trypanosoma cruzi Dm28c trypomastigotes infected in monkey LLC-MK2 cells after 24 hrs by luminescent assay; format: functional, organism-based
Trypanosoma cruzi [10] = assay: Trypanocidal activity against Trypanosoma cruzi Dm28c intracellular amastigotes infected in African green monkey Vero cells after 72 hrs; format: functional, organism-based
[11] = Therapeutic index, ratio of CC50 for African green monkey Vero cells to IC50 for Trypanosoma cruzi Dm28c intracellular amastigotes infected in African green monkey Vero cells; format: toxicity, cell-based; conditions: read-out: Ratio CC50/IC50
Trypanosoma cruzi [12] = assay: Trypanocidal activity against Trypanosoma cruzi Y intracellular amastigotes infected in Swiss Webster mouse cardiomyocytes after 72 hrs; format: functional, organism-based
[13] = Cytotoxicity against Swiss Webster mouse cardiomyocytes after 72 hrs; parameters: species or system Cardiac Muscle Cell
[14] = Therapeutic index, ratio of CC50 for Swiss Webster mouse cardiomyocytes to IC50 for Trypanosoma cruzi Y intracellular amastigotes infected in Swiss Webster mouse cardiomyocytes; format: toxicity, cell-based; conditions: read-out: Ratio CC50/IC50

With `O=C(Cn1ccnc1[N+](=O)[O-])NCc1ccccc1` [BENZNIDAZOLE] the CC50 at 72 h [1] was > 500 µM, the CC50 at 72 h [2] was 366 µM and the IC50 (Trypanosoma cruzi [3]) was 29.8 µM. The IC90 (Trypanosoma cruzi [3]) was 68.5 µM, the IC50 (Trypanosoma cruzi [4]) was 18.1 µM and the IC90 (Trypanosoma cruzi [4]) was > 100 µM. The selectivity ratio [5] was 12.2, the selectivity ratio [6] was 20.2 and the IC50 (Trypanosoma cruzi [7]; LLC-MK2, 24 h) was 93.3 µM. For the same compound, the IC90 (Trypanosoma cruzi [7]; LLC-MK2, in Primates, 24 h) was > 100 µM, the IC50 (Trypanosoma cruzi [8]; LLC-MK2, 24 h) was 69.3 µM and the IC90 (Trypanosoma cruzi [8]; LLC-MK2, in Primates, 24 h) was > 100 µM. For the same compound, the IC50 (Trypanosoma cruzi [9]; LLC-MK2, 24 h) was 24.7 µM, the IC90 (Trypanosoma cruzi [9]; LLC-MK2, in Primates, 24 h) was 92.3 µM and the IC50 (Trypanosoma cruzi [10]) was 4.39 µM. The IC90 (Trypanosoma cruzi [10]) was 24.9 µM, the selectivity ratio [11] was 83.2 and the IC50 (Trypanosoma cruzi [12]) was 1.1 µM. For the same compound, the CC50 at 72 h [13] was > 500 µM and the selectivity ratio [14] was > 455.

For `O=C1C=C(O)C(=O)c2ccccc21` [LAWSONE], the CC50 at 72 h [1] was > 500 µM, the CC50 at 72 h [2] was 214 µM and the IC50 (Trypanosoma cruzi [3]) was > 100 µM. For the same compound, the IC90 (Trypanosoma cruzi [3]) was > 100 µM, the IC50 (Trypanosoma cruzi [4]) was > 100 µM and the IC90 (Trypanosoma cruzi [4]) was > 100 µM. For the same compound, the IC50 (Trypanosoma cruzi [10]) was 89 µM, the IC90 (Trypanosoma cruzi [10]) was > 100 µM and the selectivity ratio [11] was 2.39.
